Test results as given in patent publication US9302999B2, “Substituted triazoles as herbicides” (E. I. DU PONT DE NEMOURS AND COMPANY, priority 2012, dated 2016).

Tests used:
Format in all cases: in vivo
[1] = system: pigweed (Amaranthus retroflexus); assay: Test A pre-/postemergence: pigweed; details: for Pigweed plant response rating: visual rating on 0 to 100 scale (0 no effect, 100 complete control), approximately ten days
Summary of the method: (§1)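 Seeds were sown in loam/sand blend and sprayed preemergence (directed soil spray) and, simultaneously, postemergence at 2–10 cm, one- to two-leaf stage, using compounds in non-phytotoxic solvent with surfactant. After ~10 days in greenhouse, injury was rated visually versus untreated controls, 0 (no effect) to 100 (complete control).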

[2] = system: wheat (Triticum aestivum); assay: Test A pre-/postemergence: wheat; details: for Wheat plant response rating: visual rating on 0 to 100 scale (0 no effect, 100 complete control), approximately ten days
Summary of the method: as §1

[3] = system: barnyardgrass (Echinochloa crus-galli); assay: Test B flooded paddy: barnyardgrass; details: Flood; 250 g ai/ha; applied to paddy water at 2-leaf stage; visually evaluated after 13 to 15 days
Summary of the method: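 Flooded-pot test: compound dosed into 3 cm of standing water above soil when plants had two leaves. Visual control ratings (0–100) versus untreated plants after 13–15 d.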

[4] = system: ryegrass, Italian (Italian ryegrass, Lolium multiflorum); assay: Test C pre-/postemergence: ryegrass, Italian
Summary of the method: (§2)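 Preemergence on seeds in loam/sand, postemergence on 2–18 cm (1–4-leaf) plants in peat-based medium; compounds in non-phytotoxic solvent with surfactant. After 13–15 days in greenhouse, visual rating versus controls, 0 (no effect) to 100 (complete control).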

[5] = system: galium (catchweed bedstraw, Galium aparine); assay: Test C pre-/postemergence: galium
Summary of the method: as §2

[6] = system: corn (Zea mays); assay: Test C pre-/postemergence: corn
Summary of the method: as §2

[7] = system: large crabgrass (Digitaria sanguinalis); assay: Test C pre-/postemergence: large crabgrass
Summary of the method: as §2

[8] = system: foxtail, giant (giant foxtail, Setaria faberii); assay: Test C pre-/postemergence: foxtail, giant
Summary of the method: as §2

[9] = system: lambsquarters (Chenopodium album); assay: Test C pre-/postemergence: lambsquarters
Summary of the method: as §2

[10] = system: morningglory (Ipomoea coccinea); assay: Test C pre-/postemergence: morningglory
Summary of the method: as §2

[11] = Postemergence, 125 g ai/ha, 0 to 100 scale, 0 is no effect, 100 is complete control
[12] = Preemergence, 125 g ai/ha, 0 to 100 scale where 0 is no effect and 100 is complete control
[13] = Preemergence, 500 g ai/ha, 0 to 100 scale (0 no effect, 100 complete control)
[14] = Postemergence, 31 g ai/ha, scale 0 to 100 (0 no effect, 100 complete control)
[15] = Postemergence, 62 g ai/ha, scale 0 to 100 (0 no effect, 100 complete control)
[16] = Postemergence, 125 g ai/ha, scale 0 to 100, 0 no effect, 100 complete control
[17] = Postemergence, 250 g ai/ha, scale 0 to 100
[18] = Preemergence, 31 g ai/ha, scale of 0 to 100, 0 is no effect, 100 is complete control
[19] = Preemergence, 62 g ai/ha, scale of 0 to 100, 0 is no effect, 100 is complete control
[20] = Preemergence, 125 g ai/ha, scale 0 to 100, 0 no effect, 100 complete control
[21] = Preemergence, 250 g ai/ha, scale 0 to 100, 0 no effect, 100 complete control

For `Cc1nn(-c2ccnc(Cl)c2)nc1Cc1ccnc(C(F)(F)F)c1` [Compound 141], the “Plant response rating, Pigweed” value [1, 11] was 100, the “Pigweed plant response rating” value ([1]; Postemergence, 500 g ai/ha) was 100 and the “Plant response rating, Pigweed” value [1, 12] was 100. The “Plant response rating, Pigweed” value [1, 13] was 100, the “Plant response rating, Wheat” value [2, 11] was 20 and the “Wheat plant response rating” value ([2]; Postemergence, 500 g ai/ha) was 50. The “Plant response rating, Wheat” value [2, 12] was 0, the “Plant response rating, Wheat” value [2, 13] was 20 and the “Plant response rating, Barnyardgrass (0 to 100 scale, 0 is no effect, 100 is complete control)” value [3] was 20. For the same compound, the “Plant response rating, Ryegrass, Italian” value [4, 14] was 15, the “Plant response rating, Ryegrass, Italian” value [4, 15] was 30 and the “Plant response rating, Ryegrass, Italian” value [4, 16] was 50. For the same compound, the “Plant response rating, Ryegrass, Italian” value [4, 17] was 70, the “Plant response rating, Galium” value [5, 14] was 85 and the “Plant response rating, Galium” value [5, 15] was 85. For the same compound, the “Plant response rating, Galium” value [5, 16] was 90, the “Plant response rating, Galium” value [5, 17] was 90 and the “Plant response rating, Corn” value [6, 14] was 45. The “Plant response rating, Corn” value [6, 15] was 45, the “Plant response rating, Corn” value [6, 16] was 55 and the “Plant response rating, Corn” value [6, 17] was 60. The “Plant response rating, Crabgrass, Large” value [7, 14] was 20, the “Plant response rating, Crabgrass, Large” value [7, 15] was 55 and the “Plant response rating, Crabgrass, Large” value [7, 16] was 80. The “Plant response rating, Crabgrass, Large” value [7, 17] was 95, the “Plant response rating, Foxtail, Giant” value [8, 14] was 10 and the “Plant response rating, Foxtail, Giant” value [8, 15] was 20. The “Plant response rating, Foxtail, Giant” value [8, 16] was 45, the “Plant response rating, Foxtail, Giant” value [8, 17] was 80 and the “Plant response rating, Lambsquarters” value [9, 14] was 98. For the same compound, the “Plant response rating, Lambsquarters” value [9, 15] was 98, the “Plant response rating, Lambsquarters” value [9, 16] was 98 and the “Plant response rating, Lambsquarters” value [9, 17] was 98. For the same compound, the “Plant response rating, Morningglory” value [10, 14] was 85, the “Plant response rating, Morningglory” value [10, 15] was 85 and the “Plant response rating, Morningglory” value [10, 16] was 95.

In the case of `Cc1nn(-c2ccc(F)cc2F)nc1Oc1ccnc(C(F)(F)F)c1` [Compound 146], the “Plant response rating, Pigweed” value [1, 11] is reported as 100, the “Pigweed plant response rating” value ([1]; Postemergence, 500 g ai/ha) is reported as 100 and the “Plant response rating, Pigweed” value [1, 12] is reported as 100. The “Plant response rating, Pigweed” value [1, 13] was 100, the “Plant response rating, Wheat” value [2, 11] was 10 and the “Wheat plant response rating” value ([2]; Postemergence, 500 g ai/ha) was 30. The “Plant response rating, Wheat” value [2, 12] was 0, the “Plant response rating, Wheat” value [2, 13] was 30 and the “Plant response rating, Barnyardgrass (0 to 100 scale, 0 is no effect, 100 is complete control)” value [3] was 50. For the same compound, the “Plant response rating, Ryegrass, Italian” value [4, 18] was 0, the “Plant response rating, Ryegrass, Italian” value [4, 19] was 30 and the “Plant response rating, Ryegrass, Italian” value [4, 20] was 55. For the same compound, the “Plant response rating, Ryegrass, Italian” value [4, 21] was 90, the “Plant response rating, Galium” value [5, 18] was 95 and the “Plant response rating, Galium” value [5, 19] was 95. The “Plant response rating, Galium” value [5, 20] was 95, the “Plant response rating, Galium” value [5, 21] was 100 and the “Plant response rating, Corn” value [6, 18] was 0. For the same compound, the “Plant response rating, Corn” value [6, 19] was 0, the “Plant response rating, Corn” value [6, 20] was 15 and the “Plant response rating, Corn” value [6, 21] was 25. The “Plant response rating, Crabgrass, Large” value [7, 18] was 98, the “Plant response rating, Crabgrass, Large” value [7, 19] was 100 and the “Plant response rating, Crabgrass, Large” value [7, 20] was 100. The “Plant response rating, Crabgrass, Large” value [7, 21] was 100, the “Plant response rating, Foxtail, Giant” value [8, 18] was 40 and the “Plant response rating, Foxtail, Giant” value [8, 19] was 100. The “Plant response rating, Foxtail, Giant” value [8, 20] was 100, the “Plant response rating, Foxtail, Giant” value [8, 21] was 100 and the “Plant response rating, Lambsquarters” value [9, 18] was 10. For the same compound, the “Plant response rating, Lambsquarters” value [9, 19] was 40, the “Plant response rating, Lambsquarters” value [9, 20] was 85 and the “Plant response rating, Lambsquarters” value [9, 21] was 95. The “Plant response rating, Morningglory” value [10, 18] was 35, the “Plant response rating, Morningglory” value [10, 19] was 40 and the “Plant response rating, Morningglory” value [10, 20] was 45. For the same compound, the “Plant response rating, Morningglory” value [10, 21] was 90.
